Source: PubChem BioAssay (NCI)
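Following 48 hours of exposure in 96-well plates, responses at five concentrations were used to interpolate endpoints linearly. GI50 = concentration required for 50% inhibition of growth. TGI is the concentration that stops growth completely.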

Columns and labels:
Assay in all cases: DTP human tumour cell line panel, 48 h
[1] = tested on: SF-539 CNS
[2] = tested on: NCI-H226 lung
[3] = tested on: OVCAR-8 ovarian
[4] = tested on: MDA-MB-231 breast
[5] = tested on: A498 renal
[6] = tested on: OVCAR-3 ovarian
[7] = tested on: CCRF-CEM leukemia
[8] = tested on: HCT-15 colon
[9] = tested on: UACC-62 melanoma
[10] = tested on: SK-MEL-5 melanoma
[11] = tested on: A549 NSCLC
[12] = tested on: HOP-92 NSCLC
[13] = tested on: NCI-H522 lung
[14] = tested on: NCI-H460 lung
[15] = tested on: RPMI-8226 leukemia
[16] = tested on: K-562 leukemia
[17] = tested on: SF-295 CNS
[18] = tested on: SR leukemia
[19] = tested on: PC-3 prostate
[20] = tested on: MDA-MB-435
[21] = tested on: HS 578T breast
[22] = tested on: SN12C renal
[23] = tested on: SK-MEL-2 melanoma
[24] = tested on: OVCAR-5 ovarian
[25] = tested on: NCI-H23 lung
[26] = tested on: MCF7 breast
[27] = tested on: LOX IMVI melanoma
[28] = tested on: HL-60(TB) leukemia
[29] = tested on: UO-31 renal
[30] = tested on: MOLT-4 leukemia
[31] = tested on: SW-620 colon
[32] = tested on: 786-0 renal
[33] = tested on: ACHN renal
[34] = tested on: IGROV1 ovarian
[35] = tested on: DU-145 prostate
[36] = tested on: NCI/ADR-RES ovarian
[37] = tested on: CAKI-1 renal
[38] = tested on: EKVX NSCLC
[39] = tested on: M14 melanoma
[40] = tested on: RXF 393 renal
[41] = tested on: SF-268 CNS
[42] = tested on: BT-549 breast
[43] = tested on: KM12 colon
[44] = tested on: UACC-257 melanoma
[45] = tested on: HCC-2998 colon
[46] = tested on: T-47D breast
[47] = tested on: SNB-75 CNS
[48] = tested on: TK-10 renal
[49] = tested on: SK-MEL-28 melanoma
[50] = tested on: HCT-116 colon
[51] = tested on: OVCAR-4 ovarian
[52] = tested on: U251 CNS
[53] = tested on: HT29 colon
[54] = tested on: COLO 205 colon
[55] = tested on: HOP-62 NSCLC
[56] = tested on: SNB-19 CNS
[57] = tested on: MALME-3M melanoma
[58] = tested on: SK-OV-3 ovarian

In the case of CN1CCN(C(=O)c2c(NC(=O)NS(=O)(=O)c3ccccc3)sc3c2CCCCC3)CC1, the GI50 [1] is reported as 29.7 µM, the TGI [1] is reported as 69.9 µM and the GI50 [2] is reported as 33.1 µM. It also gave a TGI [2] greater than 100 µM, a GI50 [3] of 53.5 µM and a TGI [3] greater than 100 µM. It also gave a GI50 [4] of 27.5 µM, a TGI [4] of 79.6 µM and a GI50 [5] of 28.8 µM. The TGI [5] was 65.8 µM, the GI50 [6] was 39.6 µM and the TGI [6] was greater than 100 µM. For the same compound, the GI50 [7] was 32.8 µM, the TGI [7] was greater than 100 µM and the GI50 [8] was 26.3 µM. For the same compound, the TGI [8] was 74.6 µM, the GI50 [9] was 23 µM and the TGI [9] was 60 µM. For the same compound, the GI50 [10] was 20.5 µM, the TGI [10] was 40.2 µM and the GI50 [11] was 65.7 µM. The TGI [11] was greater than 100 µM, the GI50 [12] was 27.1 µM and the TGI [12] was greater than 100 µM. It also gave a GI50 [13] of 30.4 µM, a TGI [13] of 98.6 µM and a GI50 [14] of 51 µM. For the same compound, the TGI [14] was greater than 100 µM, the GI50 [15] was 21.8 µM and the TGI [15] was 64.8 µM. The GI50 [16] was 33.6 µM, the TGI [16] was greater than 100 µM and the GI50 [17] was 57.2 µM. For the same compound, the TGI [17] was greater than 100 µM, the GI50 [18] was 27.5 µM and the TGI [18] was greater than 100 µM. The GI50 [19] was 30.6 µM, the TGI [19] was greater than 100 µM and the GI50 [20] was 26.2 µM. The TGI [20] was 67.8 µM, the GI50 [21] was 40.3 µM and the TGI [21] was greater than 100 µM. It also gave a GI50 [22] of 25 µM, a TGI [22] of 63.8 µM and a GI50 [23] of 60.3 µM. The TGI [23] was greater than 100 µM, the GI50 [24] was 76.3 µM and the TGI [24] was greater than 100 µM. For the same compound, the GI50 [25] was 24.3 µM, the TGI [25] was 52.1 µM and the GI50 [26] was 52.7 µM. It also gave a TGI [26] greater than 100 µM, a GI50 [27] of 30 µM and a TGI [27] of 84.9 µM. It also gave a GI50 [28] of 48.2 µM, a TGI [28] greater than 100 µM and a GI50 [29] greater than 100 µM. It also gave a TGI [29] greater than 100 µM, a GI50 [30] greater than 100 µM and a TGI [30] greater than 100 µM. It also gave a GI50 [31] of 43.9 µM, a TGI [31] greater than 100 µM and a GI50 [32] of 19.2 µM. It also gave a TGI [32] of 53 µM, a GI50 [33] of 30.7 µM and a TGI [33] greater than 100 µM. It also gave a GI50 [34] greater than 100 µM, a TGI [34] greater than 100 µM and a GI50 [35] of 41 µM. For the same compound, the TGI [35] was greater than 100 µM, the GI50 [36] was 34 µM and the TGI [36] was greater than 100 µM. It also gave a GI50 [37] of 20.3 µM, a TGI [37] of 54.4 µM and a GI50 [38] of 33.7 µM. The TGI [38] was 98.7 µM, the GI50 [39] was 21.6 µM and the TGI [39] was 49.8 µM. For the same compound, the GI50 [40] was 34 µM, the TGI [40] was greater than 100 µM and the GI50 [41] was 41.2 µM. It also gave a TGI [41] greater than 100 µM, a GI50 [42] of 26.3 µM and a TGI [42] of 98.6 µM. It also gave a GI50 [43] of 29.3 µM, a TGI [43] of 80.1 µM and a GI50 [44] of 35.6 µM. The TGI [44] was greater than 100 µM, the GI50 [45] was 21.9 µM and the TGI [45] was 44.2 µM.

Work on C[C@]1(C(=O)O)N[C@H](C(=O)O)CS1 yielded a GI50 [46] greater than 1000 µM, a TGI [46] greater than 1000 µM and a GI50 [47] greater than 1000 µM. The TGI [47] was greater than 1000 µM, the GI50 [2] was greater than 1000 µM and the TGI [2] was greater than 1000 µM. For the same compound, the GI50 [3] was greater than 1000 µM, the TGI [3] was greater than 1000 µM and the GI50 [4] was greater than 1000 µM. It also gave a TGI [4] greater than 1000 µM, a GI50 [48] greater than 1000 µM and a TGI [48] greater than 1000 µM. The GI50 [6] was 504 µM, the TGI [6] was greater than 1000 µM and the GI50 [7] was greater than 1000 µM. For the same compound, the TGI [7] was greater than 1000 µM, the GI50 [49] was greater than 1000 µM and the TGI [49] was greater than 1000 µM. It also gave a GI50 [8] greater than 1000 µM, a TGI [8] greater than 1000 µM and a GI50 [9] greater than 1000 µM. The TGI [9] was greater than 1000 µM, the GI50 [10] was 1.48 µM and the TGI [10] was 270 µM. It also gave a GI50 [11] greater than 1000 µM, a TGI [11] greater than 1000 µM and a GI50 [12] greater than 1000 µM. The TGI [12] was greater than 1000 µM, the GI50 [50] was greater than 1000 µM and the TGI [50] was greater than 1000 µM. For the same compound, the GI50 [13] was greater than 1000 µM, the TGI [13] was greater than 1000 µM and the GI50 [14] was greater than 1000 µM. The TGI [14] was greater than 1000 µM, the GI50 [15] was greater than 1000 µM and the TGI [15] was greater than 1000 µM. For the same compound, the GI50 [16] was 2.34 µM, the TGI [16] was greater than 1000 µM and the GI50 [17] was 933 µM. It also gave a TGI [17] greater than 1000 µM, a GI50 [51] greater than 1000 µM and a TGI [51] greater than 1000 µM. For the same compound, the GI50 [52] was greater than 1000 µM, the TGI [52] was greater than 1000 µM and the GI50 [19] was greater than 1000 µM. The TGI [19] was greater than 1000 µM, the GI50 [20] was greater than 1000 µM and the TGI [20] was greater than 1000 µM. It also gave a GI50 [53] greater than 1000 µM, a TGI [53] greater than 1000 µM and a GI50 [54] greater than 1000 µM. It also gave a TGI [54] greater than 1000 µM, a GI50 [23] greater than 1000 µM and a TGI [23] greater than 1000 µM. It also gave a GI50 [55] greater than 1000 µM, a TGI [55] greater than 1000 µM and a GI50 [24] greater than 1000 µM. It also gave a TGI [24] greater than 1000 µM, a GI50 [56] greater than 1000 µM and a TGI [56] greater than 1000 µM. For the same compound, the GI50 [25] was greater than 1000 µM, the TGI [25] was greater than 1000 µM and the GI50 [57] was greater than 1000 µM. It also gave a TGI [57] greater than 1000 µM, a GI50 [26] greater than 1000 µM and a TGI [26] greater than 1000 µM. The GI50 [27] was greater than 1000 µM, the TGI [27] was greater than 1000 µM and the GI50 [58] was greater than 1000 µM. The TGI [58] was greater than 1000 µM, the GI50 [29] was greater than 1000 µM and the TGI [29] was greater than 1000 µM. The GI50 [31] was greater than 1000 µM, the TGI [31] was greater than 1000 µM and the GI50 [32] was greater than 1000 µM. It also gave a TGI [32] greater than 1000 µM, a GI50 [33] greater than 1000 µM and a TGI [33] greater than 1000 µM. The GI50 [34] was greater than 1000 µM, the TGI [34] was greater than 1000 µM and the GI50 [36] was greater than 1000 µM. For the same compound, the TGI [36] was greater than 1000 µM, the GI50 [37] was 843 µM and the TGI [37] was greater than 1000 µM. For the same compound, the GI50 [39] was greater than 1000 µM, the TGI [39] was greater than 1000 µM and the GI50 [40] was greater than 1000 µM. It also gave a TGI [40] greater than 1000 µM, a GI50 [41] greater than 1000 µM and a TGI [41] greater than 1000 µM. For the same compound, the GI50 [43] was greater than 1000 µM, the TGI [43] was greater than 1000 µM and the GI50 [44] was greater than 1000 µM. The TGI [44] was greater than 1000 µM, the GI50 [45] was 921 µM and the TGI [45] was greater than 1000 µM.
